Measured values published in PMC7773174 (Tetrahedron letters, 2020).
≈ marks a conversion by molar mass, not a printed value.

Key:
MRSA = details: cited from earlier work
[1] = tested on: MSSA (Staphylococcus aureus SH1000); assay: MIC, broth dilution antimicrobial susceptibility; format: cell-based; details: S. aureus SH1000; highest value of three independent trials
[2] = tested on: HA-MRSA (Staphylococcus aureus ATCC 33591); assay: MIC, broth dilution antimicrobial susceptibility; format: cell-based; details: S. aureus ATCC 33591; highest value of three independent trials
[3] = tested on: CA-MRSA (Staphylococcus aureus USA 300-0114); assay: MIC, broth dilution antimicrobial susceptibility; format: cell-based; details: S. aureus USA 300-0114; highest value of three independent trials
[4] = tested on: Enterococcus faecalis (OG1RF); assay: MIC, broth dilution antimicrobial susceptibility; format: cell-based; details: highest value of three independent trials
[5] = tested on: Pseudomonas aeruginosa (PAO1); assay: MIC, broth dilution antimicrobial susceptibility; format: cell-based; details: highest value of three independent trials
[6] = tested on: Escherichia coli (MC4100); assay: MIC, broth dilution antimicrobial susceptibility; format: cell-based; details: highest value of three independent trials
[7] = tested on: red blood cell (RBC), mechanically defibrillated sheep's blood; format: cell-based
[8] = Partition coefficient by extraction with n-octanol and deionized water; format: physicochemical
[9] = tested on: plasma binding proteins, namely retinoid binding proteins; assay: Binding to plasma binding proteins; format: in vitro ADME; details: unpublished data
Solubility within serum = format: physicochemical; details: preliminary analysis

Compound	minimum inhibitory concentration (MIC) (MRSA; ref [5]) [µg/mL]	Minimum Inhibitory Concentration MSSA [1] [µM]	Minimum Inhibitory Concentration HA-MRSA [2] [µM]	Minimum Inhibitory Concentration CA-MRSA [3] [µM]	Minimum Inhibitory Concentration E. faecalis [4] [µM]	Minimum Inhibitory Concentration P. aeruginosa [5] [µM]	Minimum Inhibitory Concentration E. coli [6] [µM]	Lysis20 [7] [µM]	P (partition coefficient) ([8]; average over 3 independent trials)	logP ([8]; triplicate, ± standard deviation)	binding to plasma binding proteins [9]	solubility within serum (Solubility within serum)	MIC (MRSA; ref [6]–[7]) [µg/mL]
O=C(O)c1ccc2cc(-c3ccc(O)c(C45CC6CC(CC(C6)C4)C5)c3)ccc2c1 [Compound 1, CD437, reference compound]	1 (≈ 2.51 µM)	–	–	–	–	–	–	–	–	–	–	–	–
OCc1ccc2cc(-c3ccc(O)c(C45CC6CC(CC(C6)C4)C5)c3)ccc2c1 [Compound 2]	–	2	2	2	>250	>250	>250	125	9.16	0.93 ± 0.20	high levels of binding	low solubility	2 (≈ 5.2 µM)
benzalkonium chloride [BAC, reference compound]	–	2	4	4	125	125	32	32	–	–	–	–	–
